{
  "source": "paper PMC3419744",
  "about": "“Anti-Tumor Activity of a Novel HS-Mimetic-Vascular Endothelial Growth Factor Binding Small Molecule” (PLoS ONE, 2012)",
  "key": {"LM8G7 cells": {"system": "LM8G7 cells", "assay": "Proliferation assay (TetraColor One), LM8G7 cells", "type": "cell-based, murine", "conditions": "for IC50: NS = not significant, read-out: IC50, inhibition of proliferation, LM8G7", "procedure": "(§1) Two tumor cell lines such as LM8, LM8G7, and UV♀2 endothelial were used to evaluate the anti-proliferative activity of the compounds. UV♀2 (1×10^4 cells) or LM8 or LM8G7 cells (5×10^3 cells) were seeded in 96-well plate and incubated overnight at 37°C. […] 5 µL of TetraColor One reagent was added and incubated for an additional 2–4 h and the absorbance at 450 nm (Bio-Rad) was measured. […] The results were expressed as a percentage of viable cells relative to cells treated with DMSO. The viability of the cells was expressed in percentage terms and IC50 value was calculated."}, "UV♀2 cells": {"system": "UV♀2 cells", "assay": "Proliferation assay (TetraColor One), UV♀2 endothelial cells", "type": "cell-based, mouse", "conditions": "for IC50: 48 h, serum-containing conditions (10%FBS), NS = not significant, read-out: IC50, inhibition of proliferation, UV♀2", "procedure": "as §1"}, "LM8 cells": {"system": "LM8 cells", "assay": "Proliferation assay (TetraColor One), LM8 cells", "type": "cell-based, murine", "conditions": "for IC50: 48 h, NS = not significant, read-out: IC50, inhibition of proliferation, LM8", "procedure": "as §1"}, "VEGF": {"target": "T1, VEGF (Homo sapiens, UniProt P15692)", "T1 construct": "purchased Wako Pure Chemicals Co. (Osaka, Japan)", "T1 sequence (P15692 1-191 isoform P15692-4)": "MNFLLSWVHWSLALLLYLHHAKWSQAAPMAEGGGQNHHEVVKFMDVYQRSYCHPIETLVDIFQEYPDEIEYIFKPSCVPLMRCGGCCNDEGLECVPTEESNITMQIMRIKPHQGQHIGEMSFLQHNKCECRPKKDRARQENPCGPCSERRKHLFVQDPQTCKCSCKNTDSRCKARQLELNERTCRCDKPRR", "assay": "SPR imaging of immobilized small molecules binding to VEGF", "conditions": "compounds immobilized on chip, growth factor 50 µg/mL", "procedure": "(§2) The chip was washed successively with ethanol, water, and ethanol. Then the chip is air dried to obtain the photo reactive chip. The compounds 1–9 were spotted on the chip (10 mM), washed, and dried in vacuo, and then irradiated at 365 nm under a UV transmission filter (Sigma-Koki, Japan). The compounds were immobilized onto the photo-reactive linker that bound to the gold-surface of the glass chip was set into an SPR imaging instrument (TOYOBO), and each growth factor (50 µg/mL) was injected onto the array surface at 0.1 ml/min and incubated for 10 min. The SPR image and signal data were collected with an SPR analysis program (TOYOBO). The SPR difference image was constructed by using the Scion Image program (Scion, MD)."}, "[1]": {"target": "T2, VEGF165 binding to immobilised heparin (Homo sapiens, UniProt P15692)", "T2 construct": "purchased Wako Pure Chemicals Co. (Osaka, Japan)", "T2 sequence (P15692 1-191 isoform P15692-4)": "T1 sequence (P15692 1-191 isoform P15692-4)", "assay": "BIAcore analysis of VEGF165 binding to immobilised heparin", "conditions": "VEGF165 250 nM", "procedure": "The heparin-immobilized sensor chip was prepared as reported earlier. […] The flow rate was kept at a moderate speed ([…]) according to the manufacturer's recommendations."}, "FGF-2": {"target": "T3, FGF-2 (Homo sapiens, UniProt P09038)", "T3 construct": "purchased Wako Pure Chemicals Co. (Osaka, Japan)", "T3 sequence (P09038 134-288)": "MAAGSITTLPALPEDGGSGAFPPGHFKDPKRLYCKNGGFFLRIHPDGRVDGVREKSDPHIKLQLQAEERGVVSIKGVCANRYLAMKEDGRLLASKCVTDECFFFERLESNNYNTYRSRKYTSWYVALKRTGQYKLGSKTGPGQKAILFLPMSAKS", "assay": "SPR imaging of immobilized small molecules binding to FGF-2", "conditions": "compounds immobilized on chip, growth factor 50 µg/mL", "procedure": "as §2"}, "[2]": {"conditions": "Mus musculus, LM8G7, 48 h, 48 h"}},
  "note": "“Also recorded” adds a separate entry of the source. Like-named read-outs stand apart in the source and are kept apart here.",
  "data": [
    {"smiles": "Cc1ccc(C(=O)Nc2ccc(S(=O)(=O)O)c3cc(S(=O)(=O)O)cc(S(=O)(=O)O)c23)cc1NC(=O)c1cccc(NC(=O)Nc2cccc(C(=O)Nc3cc(C(=O)Nc4ccc(S(=O)(=O)O)c5cc(S(=O)(=O)O)cc(S(=O)(=O)O)c45)ccc3C)c2)c1", "note": "[Suramin, reference compound]", "values": [
      {"measurement": "inhibition of proliferation of LM8G7 cells (in words)", "setting": "LM8G7 cells", "value": "comparable with the inhibitory activity of compound 8"},
      {"measurement": "IC50", "setting": "LM8G7 cells; Mus musculus, LM8G7, 48 h", "value": "14 ± 24", "unit": "µM"},
      {"measurement": "IC50", "setting": "UV♀2 cells; Mus musculus, Endothelial cell", "value": "34 ± 1.4", "unit": "µM"},
      {"measurement": "inhibition of proliferation of LM8 cells (in words)", "setting": "LM8 cells", "value": "comparable with the inhibitory activity of compound 8"},
      {"measurement": "IC50", "setting": "LM8 cells; Mus musculus", "value": "12 ± 2.8", "unit": "µM"}
    ]},
    {"smiles": "CCc1nnc(S)n1N=Cc1c(F)cccc1F", "note": "[compound 6, 4-[(2,6-Difluoro-benzylidene)-amino]-5-ethyl-4H-[1,2,4]triazole-3-thiol]", "values": [
      {"measurement": "IC50", "setting": "LM8G7 cells; [2]", "value": "23 ± 0.5", "unit": "µM"},
      {"measurement": "effect on proliferation of UV♀2 cells (in words)", "setting": "UV♀2 cells", "value": "moderately inhibited"},
      {"measurement": "IC50", "setting": "UV♀2 cells; Mus musculus, Endothelial cell", "value": "14 ± 4.6", "unit": "µM"},
      {"measurement": "IC50", "setting": "LM8 cells; Mus musculus", "value": "64 ± 6.7", "unit": "µM"},
      {"measurement": "binding to VEGF (SPR signal)", "setting": "VEGF", "value": "significantly; also recorded: weak binding"}
    ]},
    {"smiles": "N.N.[Cl][Pt][Cl]", "note": "[Cisplatin, reference compound]", "values": [
      {"measurement": "IC50", "setting": "LM8G7 cells; 48 h", "value": "15 ± 0.6", "unit": "µM"},
      {"measurement": "IC50", "setting": "UV♀2 cells", "value": "12 ± 0.4", "unit": "µM"},
      {"measurement": "IC50", "setting": "LM8 cells", "value": "30 ± 24", "unit": "µM"}
    ]},
    {"smiles": "Fc1cccc(F)c1C=Nn1c(S)nnc1-c1ccccc1", "note": "[compound 7, 4-[(2,6-difluoro-benzylidene)-amino]-5-phenyl-4H-[1,2,4]triazole-3-thiol]", "values": [
      {"measurement": "IC50", "setting": "LM8G7 cells; [2]", "value": "> 100", "unit": "µM"},
      {"measurement": "IC50", "setting": "UV♀2 cells; Mus musculus, Endothelial cell", "value": "> 100", "unit": "µM"},
      {"measurement": "IC50", "setting": "LM8 cells; Mus musculus", "value": "> 100", "unit": "µM"},
      {"measurement": "inhibition of binding of VEGF165 to immobilised heparin", "setting": "[1]", "value": "failed to inhibit the binding of VEGF to heparin"},
      {"measurement": "binding to VEGF (SPR signal)", "setting": "VEGF", "value": "does not bind VEGF"}
    ]},
    {"smiles": "CCCCc1nc(Cl)c(C=O)n1Cc1cc2c(cc1C)OCO2", "note": "[compound 9]", "values": [
      {"measurement": "IC50", "setting": "LM8G7 cells; 48 h", "value": "> 100", "unit": "µM"},
      {"measurement": "IC50", "setting": "UV♀2 cells", "value": "> 100", "unit": "µM"},
      {"measurement": "IC50", "setting": "LM8 cells", "value": "46 ± 6.7", "unit": "µM"}
    ]},
    {"smiles": "Cc1nnc(S)n1N=Cc1c(F)cccc1F", "note": "[compound 5, 4-[(2,6-Difluoro-benzylidene)-amino]-5-methyl-4H-[1,2,4]triazole-3-thiol]", "values": [
      {"measurement": "IC50", "setting": "LM8G7 cells; [2]", "value": "> 100", "unit": "µM"},
      {"measurement": "IC50", "setting": "UV♀2 cells; Mus musculus, Endothelial cell", "value": "45 ± 2.1", "unit": "µM"},
      {"measurement": "IC50", "setting": "LM8 cells; Mus musculus", "value": "36 ± 6.4", "unit": "µM"}
    ]},
    {"smiles": "CCCCc1nc(Cl)c(C=O)n1Cc1ccc([N+](=O)[O-])cc1", "note": "[compound 8, 2-butyl-5-chloro-3-(4-nitro-benzyl)-3H-imidazole-4-carbaldehyde]", "values": [
      {"measurement": "binding to FGF-2 (SPR signal)", "setting": "FGF-2", "value": "significantly, although with weaker affinity compared to its VEGF binding; also recorded: weakly"},
      {"measurement": "inhibition of binding of VEGF165 to immobilised heparin", "setting": "[1]", "value": "inhibited the binding of VEGF165 to the immobilised heparin"},
      {"measurement": "binding to VEGF (SPR signal)", "setting": "VEGF", "value": "very strongly; also recorded: strongly"}
    ]}
  ]
}
